We go through 18 molecules from US20230117034A1, “PYRAZOLOTRIAZINES” (Bayer Aktiengesellschaft, priority 2019, published 2023).

Structures are written as SMILES.

Assay [1] deals with T1, CDK12 (nuclear staining in CAL-120 cells) (Homo sapiens, UniProt Q9NYV4).
T1 construct: endogenous in cells; host or cells: CAL-120 human breast cancer cells (DSMZ ACC 459)
The assay is described as follows: CDK12 nuclear protein level: immunofluorescence/high content analysis (CAL-120). The class given is cell-based. To be noted: for DC50: CAL-120 cells, 24 h, immunofluorescence, 50% reduction of nuclear CDK12 staining intensity, median, read-out: CDK12 degradation IF, DC50- [mol/l] (median); for (IC50 CDK12 high ATP) to (Degradation DC50 CDK12) ratio: ratio of IC50 CDK12 high ATP kinase assay to DC50 CDK12 degradation (IF, CAL-120). The gist of the method:
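CAL-120 cells were treated with compound for 24 h at 37 °C, fixed with PFA and immunostained for CDK12. Nuclear CDK12 intensity was quantified by automated image analysis and normalized to DMSO and control. DC50 is the concentration giving 50% reduction of nuclear staining.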

Assay [2] relates to MDA-MB-231, human breast cancer cells. Briefly: Proliferation assay MDA-MB-231 (crystal violet, 4 days). It is filed as cell-based. As to conditions: Homo sapiens, MDA-MB-231, 96 h, MDA-MB-231 cells, median, read-out: Prolif-MDA MB-231, IC50-[mol/l] (median). In outline:
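Plated 4,000 cells/well, 10% FCS; 24 h later treated 0.01-10 µmol/L cpd (DMSO 0.1%), 4 d. Fix glutaraldehyde, stain 0.1% crystal violet pH 3.0, elute acetic acid, A595. Normalized to t0 plate/untreated; 4-param IC50.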

The target of the next assay is T2, CDK9/CycT1 (Homo sapiens, UniProt P50750).
T2 construct: Recombinant full-length His-tagged human CDK9 and CycT1; purchased Life Technologies PV4131; host or cells: insect cells
The assay is described as follows: CDK9/CycT1 high ATP kinase assay (TR-FRET, 2 mM ATP). It is filed as biochemical. As to conditions: 2 mM ATP (high ATP); median; read-out: CDK9/CyclinT1, 2 mM ATP (high ATP), IC50 (median). The gist of the method: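 Full-length His-tagged human CDK9/CycT1 (insect cell, ~0.5 μg/mL) preincubated 15 min at 22 °C with compound in Tris pH 8.0, MgCl2, DTT buffer before reaction with biotinylated peptide substrate at high ATP (2 mM).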
A general note: Time-resolved FRET reads energy transfer from a long-lived donor to a nearby acceptor.

T2 sequence (P50750 whole entry): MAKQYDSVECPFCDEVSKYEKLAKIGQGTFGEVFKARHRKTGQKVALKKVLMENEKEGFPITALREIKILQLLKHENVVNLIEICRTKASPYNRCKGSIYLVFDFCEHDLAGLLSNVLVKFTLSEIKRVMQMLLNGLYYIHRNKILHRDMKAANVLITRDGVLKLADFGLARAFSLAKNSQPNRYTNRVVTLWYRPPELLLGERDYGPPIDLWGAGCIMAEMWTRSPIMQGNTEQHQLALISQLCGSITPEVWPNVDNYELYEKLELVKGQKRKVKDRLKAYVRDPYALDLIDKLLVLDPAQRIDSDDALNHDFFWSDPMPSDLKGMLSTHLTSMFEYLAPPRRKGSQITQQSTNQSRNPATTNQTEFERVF
T2 sequence (O60563 whole entry partner): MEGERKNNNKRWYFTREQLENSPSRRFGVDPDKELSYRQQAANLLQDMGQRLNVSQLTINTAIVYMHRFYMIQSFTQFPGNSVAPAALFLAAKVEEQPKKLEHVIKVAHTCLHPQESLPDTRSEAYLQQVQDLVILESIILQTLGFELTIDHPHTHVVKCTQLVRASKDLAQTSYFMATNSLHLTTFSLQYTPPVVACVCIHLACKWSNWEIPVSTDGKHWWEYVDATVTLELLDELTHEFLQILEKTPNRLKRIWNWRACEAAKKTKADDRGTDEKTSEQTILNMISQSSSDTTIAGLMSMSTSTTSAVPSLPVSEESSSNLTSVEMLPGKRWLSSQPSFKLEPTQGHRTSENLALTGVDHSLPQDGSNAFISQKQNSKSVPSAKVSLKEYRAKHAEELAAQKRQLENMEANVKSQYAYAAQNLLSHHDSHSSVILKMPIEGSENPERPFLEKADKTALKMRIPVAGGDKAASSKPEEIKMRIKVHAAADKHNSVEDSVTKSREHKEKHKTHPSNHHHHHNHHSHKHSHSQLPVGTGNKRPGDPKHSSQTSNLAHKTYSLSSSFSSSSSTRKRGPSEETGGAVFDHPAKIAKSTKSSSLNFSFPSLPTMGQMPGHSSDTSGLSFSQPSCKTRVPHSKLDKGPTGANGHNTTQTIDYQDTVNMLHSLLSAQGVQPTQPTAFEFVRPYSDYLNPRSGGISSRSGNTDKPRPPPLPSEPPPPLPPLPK
T1 sequence (Q9NYV4 whole entry): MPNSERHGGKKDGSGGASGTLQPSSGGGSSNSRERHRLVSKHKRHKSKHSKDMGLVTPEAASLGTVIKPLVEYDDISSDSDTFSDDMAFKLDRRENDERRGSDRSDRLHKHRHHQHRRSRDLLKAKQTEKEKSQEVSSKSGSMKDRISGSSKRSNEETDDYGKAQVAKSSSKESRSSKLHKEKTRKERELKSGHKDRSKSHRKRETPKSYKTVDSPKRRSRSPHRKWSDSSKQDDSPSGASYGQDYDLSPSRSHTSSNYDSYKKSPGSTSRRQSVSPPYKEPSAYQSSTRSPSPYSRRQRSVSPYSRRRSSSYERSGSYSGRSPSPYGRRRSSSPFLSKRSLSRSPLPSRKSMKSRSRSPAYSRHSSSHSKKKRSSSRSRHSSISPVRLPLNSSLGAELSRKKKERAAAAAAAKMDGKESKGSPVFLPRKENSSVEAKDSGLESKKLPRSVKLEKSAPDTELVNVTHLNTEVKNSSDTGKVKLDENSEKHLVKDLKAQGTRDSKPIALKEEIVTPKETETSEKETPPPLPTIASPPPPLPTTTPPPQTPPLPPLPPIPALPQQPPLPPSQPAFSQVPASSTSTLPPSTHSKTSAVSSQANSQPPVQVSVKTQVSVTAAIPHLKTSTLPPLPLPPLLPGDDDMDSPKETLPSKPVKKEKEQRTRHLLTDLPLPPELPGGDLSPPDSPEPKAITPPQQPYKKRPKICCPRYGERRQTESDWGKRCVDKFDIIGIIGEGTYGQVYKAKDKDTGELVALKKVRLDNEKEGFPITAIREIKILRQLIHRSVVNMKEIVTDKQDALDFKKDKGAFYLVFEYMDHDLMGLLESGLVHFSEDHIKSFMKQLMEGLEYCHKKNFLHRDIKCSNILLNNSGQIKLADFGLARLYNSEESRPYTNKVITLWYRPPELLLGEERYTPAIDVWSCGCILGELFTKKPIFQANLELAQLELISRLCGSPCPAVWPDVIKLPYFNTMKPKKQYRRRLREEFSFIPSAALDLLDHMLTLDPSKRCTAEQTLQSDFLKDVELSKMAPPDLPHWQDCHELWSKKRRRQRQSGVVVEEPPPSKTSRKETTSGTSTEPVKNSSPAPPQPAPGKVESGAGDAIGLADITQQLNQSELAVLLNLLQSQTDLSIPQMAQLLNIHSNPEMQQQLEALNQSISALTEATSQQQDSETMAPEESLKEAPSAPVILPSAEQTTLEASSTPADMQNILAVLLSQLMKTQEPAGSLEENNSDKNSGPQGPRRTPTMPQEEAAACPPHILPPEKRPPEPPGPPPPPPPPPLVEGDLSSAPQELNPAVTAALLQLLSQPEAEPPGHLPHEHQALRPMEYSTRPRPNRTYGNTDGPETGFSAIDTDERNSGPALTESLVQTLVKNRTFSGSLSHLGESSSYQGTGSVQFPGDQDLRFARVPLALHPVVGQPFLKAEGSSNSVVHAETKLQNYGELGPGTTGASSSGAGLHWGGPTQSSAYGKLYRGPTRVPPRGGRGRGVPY
T1 sequence (O75909 whole entry partner): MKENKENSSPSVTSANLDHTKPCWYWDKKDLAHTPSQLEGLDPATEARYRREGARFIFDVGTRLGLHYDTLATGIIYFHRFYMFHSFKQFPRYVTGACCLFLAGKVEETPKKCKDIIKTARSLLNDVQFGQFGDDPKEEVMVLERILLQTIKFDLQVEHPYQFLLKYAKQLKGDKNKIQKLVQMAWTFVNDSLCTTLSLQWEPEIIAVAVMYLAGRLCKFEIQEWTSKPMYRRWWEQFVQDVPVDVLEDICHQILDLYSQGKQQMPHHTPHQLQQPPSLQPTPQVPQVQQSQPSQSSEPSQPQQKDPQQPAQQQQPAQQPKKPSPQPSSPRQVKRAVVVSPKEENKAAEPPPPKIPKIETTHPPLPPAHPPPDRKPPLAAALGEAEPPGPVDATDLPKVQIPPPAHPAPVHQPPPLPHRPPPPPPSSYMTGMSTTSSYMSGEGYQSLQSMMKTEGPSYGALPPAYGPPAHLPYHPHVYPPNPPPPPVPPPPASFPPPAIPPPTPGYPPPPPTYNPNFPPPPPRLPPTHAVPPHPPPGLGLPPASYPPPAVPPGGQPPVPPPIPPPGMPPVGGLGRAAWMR

Consider `CN(CC(C)(C)O)c1nc(NCc2nc3c(F)cccc3[nH]2)n2ncc(Cl)c2n1` [Example 366, 1-[(8-chloro-4-{[(4-fluoro-1H-benzimidazol-2-yl)methyl]amino}pyrazolo[1,5-a][1,3,5]triazin-2-yl)(methyl)amino]-2-methylpropan-2-ol], for which, in assay [1], the DC50 turned out to be 9.52 nM and the “(IC50 CDK12 high ATP) to (Degradation DC50 CDK12) ratio” value was 190. In assay [2], the IC50 is 57.1 nM. Further, the IC50 on CDK9/CycT1 was more than 20000 nM.
With `Fc1cc(F)cc(-c2nnc(CNc3nc(N4CCOCC4)nc4c(C(F)(F)F)cnn34)[nH]2)c1` [Example 386, N-{[5-(3,5-difluorophenyl)-4H-1,2,4-triazol-3-yl]methyl}-2-(morpholin-4-yl)-8-(trifluoromethyl)pyrazolo[1,5-a][1,3,5]triazin-4-amine], in assay [1], the DC50 was 9.83 nM and the “(IC50 CDK12 high ATP) to (Degradation DC50 CDK12) ratio” value turned out to be 12. Also, the IC50 in assay [2] stood at 20.2 nM. In addition, the IC50 at CDK9/CycT1 was found to be 749 nM.
Take `FC(F)(F)c1ccc2[nH]c(CNc3nc(N4CCOCC4)nc4c(Br)cnn34)nc2c1` [Example 339, 8-bromo-2-(morpholin-4-yl)-N-{[5-(trifluoromethyl)-1H-benzimidazol-2-yl]methyl}pyrazolo[1,5-a][1,3,5]triazin-4-amine]: in assay [1], the DC50 worked out at 7.59 nM and the “(IC50 CDK12 high ATP) to (Degradation DC50 CDK12) ratio” value was 204. Also, the IC50 in assay [2] stood at 7.45 nM. The IC50 at CDK9/CycT1 worked out at 13800 nM.
In the case of `CC(C)c1cnn2c(NCc3ncc(-c4ccccc4)[nH]3)nc(N3CCN(C)CC3)nc12` [Example 31, 2-(4-methylpiperazin-1-yl)-N-[(5-phenyl-1H-imidazol-2-yl)methyl]-8-(propan-2-yl)pyrazolo[1,5-a][1,3,5]triazin-4-amine], in assay [1], the DC50 was determined as 19.7 nM and the “(IC50 CDK12 high ATP) to (Degradation DC50 CDK12) ratio” value is 689. The IC50 in assay [2] was determined as 49.8 nM. The IC50 on CDK9/CycT1 was more than 20000 nM.
Take `CN1CCN(c2nc(NCc3nc4cc(OC(F)(F)F)ccc4[nH]3)n3ncc(Br)c3n2)CC1` [Example 377, 8-bromo-2-(4-methylpiperazin-1-yl)-N-{[5-(trifluoromethoxy)-1H-benzimidazol-2-yl]methyl}pyrazolo[1,5-a][1,3,5]triazin-4-amine]: the DC50 in assay [1] was determined as 20.2 nM. The “(IC50 CDK12 high ATP) to (Degradation DC50 CDK12) ratio” value in assay [1] amounted to 252. The IC50 in assay [2] was 116 nM; at CDK9/CycT1 it was more than 20000 nM.
As for `Fc1cccc(-c2nnc(CNc3nc(N4CCOCC4)nc4c(C(F)(F)F)cnn34)[nH]2)c1` [Example 385, N-{[5-(3-fluorophenyl)-4H-1,2,4-triazol-3-yl]methyl}-2-(morpholin-4-yl)-8-(trifluoromethyl)pyrazolo[1,5-a][1,3,5]triazin-4-amine], in assay [1], the DC50 is 9.13 nM and the “(IC50 CDK12 high ATP) to (Degradation DC50 CDK12) ratio” value is 31. For the same molecule, the IC50 in assay [2] was found to be 43.8 nM. Further, the IC50 at CDK9/CycT1 stood at 1290 nM.
Consider `CN(c1nc(NCc2nc3ccccc3[nH]2)n2ncc(Br)c2n1)[C@H]1C[C@@H](O)C1` [Example 364, cis-3-[(4-{[(1H-benzimidazol-2-yl)methyl]amino}-8-bromopyrazolo[1,5-a][1,3,5]triazin-2-yl)(methyl)amino]cyclobutan-1-ol], for which, in assay [1], the DC50 was 3.81 nM. Moreover, the “(IC50 CDK12 high ATP) to (Degradation DC50 CDK12) ratio” value in assay [1] is 1751. The values for the IC50 (in assay [2]; at CDK9/CycT1) were 41.3 nM and more than 20000 nM, respectively.
Turning to `CN1CCN(c2nc(NCc3nc4c(F)cccc4[nH]3)n3ncc(Cl)c3n2)CC1.O=CO` [Example 362, formic acid 8-chloro-N-[(4-fluoro-1H-benzimidazol-2-yl)methyl]-2-(4-methylpiperazin-1-yl)pyrazolo[1,5-a][1,3,5]triazin-4-amine], in assay [1], the DC50 was determined as 7.85 nM and the “(IC50 CDK12 high ATP) to (Degradation DC50 CDK12) ratio” value was determined as 1673. In assay [2], the IC50 turned out to be 33.5 nM. The IC50 on CDK9/CycT1 was more than 20000 nM.
Taken in the same sequence, the figures for `CN1CCC(Oc2nc(NCc3nc4ccccc4[nH]3)n3ncc(Br)c3n2)CC1` [Example 389, N-[(1H-benzimidazol-2-yl)methyl]-8-bromo-2-[(1-methylpiperidin-4-yl)oxy]pyrazolo[1,5-a][1,3,5]triazin-4-amine] were 33.5 nM, more than 597, 332 nM and more than 20000 nM.
Consider `FC(F)(F)Oc1ccc2[nH]c(CNc3nc(N4C[C@H]5CC[C@@H](C4)N5)nc4c(Br)cnn34)nc2c1` [Example 382, 8-bromo-2-[(1R,5S)-3,8-diazabicyclo[3.2.1]octan-3-yl]-N-{[5-(trifluoromethoxy)-1H-benzimidazol-2-yl]methyl}pyrazolo[1,5-a][1,3,5]triazin-4-amine], for which, in assay [1], the DC50 was 79.7 nM and the “(IC50 CDK12 high ATP) to (Degradation DC50 CDK12) ratio” value was found to be 10. In assay [2], the IC50 worked out at 29.3 nM. For the same molecule, at CDK9/CycT1, the IC50 was more than 20000 nM.
Taken in the same sequence, the figures for `FC(F)(F)Oc1cccc2[nH]c(CNc3nc(N4C[C@H]5CC[C@@H](C4)N5)nc4c(Br)cnn34)nc12` [Example 381, 8-bromo-2-[(1R,5S)-3,8-diazabicyclo[3.2.1]octan-3-yl]-N-{[4-(trifluoromethoxy)-1H-benzimidazol-2-yl]methyl}pyrazolo[1,5-a][1,3,5]triazin-4-amine] were 22.2 nM, 266, 43.5 nM and 14000 nM.
Consider `C[C@H]1CN(C)CCN1c1nc(NCc2nc3c(F)cccc3[nH]2)n2ncc(C(F)(F)F)c2n1` [Example 388, 2-[(2S)-2,4-dimethylpiperazin-1-yl]-N-[(4-fluoro-1H-benzimidazol-2-yl)methyl]-8-(trifluoromethyl)pyrazolo[1,5-a][1,3,5]triazin-4-amine], for which the DC50 in assay [1] was determined as 10.4 nM. Further, the “(IC50 CDK12 high ATP) to (Degradation DC50 CDK12) ratio” value in assay [1] stood at 655. Further, the IC50 is 30.2 nM in assay [2] and more than 20000 nM on CDK9/CycT1.
Consider `CN1CCN(c2nc(NCc3nc4c(OC(F)(F)F)cccc4[nH]3)n3ncc(Br)c3n2)CC1` [Example 376, 8-bromo-2-(4-methylpiperazin-1-yl)-N-{[4-(trifluoromethoxy)-1H-benzimidazol-2-yl]methyl}pyrazolo[1,5-a][1,3,5]triazin-4-amine], for which, in assay [1], the DC50 is 12.4 nM. In assay [1], the “(IC50 CDK12 high ATP) to (Degradation DC50 CDK12) ratio” value is on record as more than 1615. Also, the IC50 in assay [2] is 102 nM; at CDK9/CycT1 it was more than 20000 nM.
With `FC(F)(F)Oc1cccc2[nH]c(CNc3nc(N4CCOCC4)nc4c(Br)cnn34)nc12` [Example 375, 8-bromo-2-(morpholin-4-yl)-N-{[4-(trifluoromethoxy)-1H-benzimidazol-2-yl]methyl}pyrazolo[1,5-a][1,3,5]triazin-4-amine], the DC50 in assay [1] was found to be 58.1 nM. Further, the “(IC50 CDK12 high ATP) to (Degradation DC50 CDK12) ratio” value in assay [1] amounted to 79. The IC50 in assay [2] came out at 142 nM; on CDK9/CycT1, 14500 nM.
Turning to `CC[C@H](CO)Nc1nc(NCc2nc3ccccc3[nH]2)n2ncc(Br)c2n1` [Example 368, (2R)-2-[(4-{[(1H-benzimidazol-2-yl)methyl]amino}-8-bromopyrazolo[1,5-a][1,3,5]triazin-2-yl)amino]butan-1-ol], the DC50 in assay [1] is 9.39 nM. Moreover, the “(IC50 CDK12 high ATP) to (Degradation DC50 CDK12) ratio” value in assay [1] was determined as 516. Also, the IC50 in assay [2] was 173 nM; at CDK9/CycT1, more than 20000 nM.
Turning to `Fc1cc2nc(CNc3nc(N4C[C@H]5CC[C@@H](C4)N5)nc4c(C5CC5)cnn34)[nH]c2cc1Cl` [Example 328, N-[(6-chloro-5-fluoro-1H-benzimidazol-2-yl)methyl]-8-cyclopropyl-2-[(1R,5S)-3,8-diazabicyclo[3.2.1]octan-3-yl]pyrazolo[1,5-a][1,3,5]triazin-4-amine], the DC50 in assay [1] is 3.95 nM. The “(IC50 CDK12 high ATP) to (Degradation DC50 CDK12) ratio” value in assay [1] was 419. Also, the IC50 in assay [2] is 1.04 nM; at CDK9/CycT1, 15000 nM.
Consider `CN(CC(C)(C)O)c1nc(NCc2nc3cc(C(F)(F)F)ccc3[nH]2)n2ncc(C3CC3)c2n1` [Example 323, 1-{[8-cyclopropyl-4-({[5-(trifluoromethyl)-1H-benzimidazol-2-yl]methyl}amino)pyrazolo[1,5-a][1,3,5]triazin-2-yl](methyl)amino}-2-methylpropan-2-ol], for which, in assay [1], the DC50 amounted to 16.9 nM and the “(IC50 CDK12 high ATP) to (Degradation DC50 CDK12) ratio” value stood at 169. For the same molecule, the IC50 in assay [2] came out at 8.76 nM. The IC50 at CDK9/CycT1 was more than 20000 nM.
On to `CN1CCCN(c2nc(NCc3nc4ccccc4[nH]3)n3ncc(Br)c3n2)CC1` [Example 390, N-[(1H-benzimidazol-2-yl)methyl]-8-bromo-2-(4-methyl-1,4-diazepan-1-yl)pyrazolo[1,5-a][1,3,5]triazin-4-amine], for which, in assay [1], the DC50 is 19.2 nM and the “(IC50 CDK12 high ATP) to (Degradation DC50 CDK12) ratio” value was more than 1041. For the same molecule, the IC50 in assay [2] is 176 nM. Moreover, on CDK9/CycT1, the IC50 is more than 20000 nM.
